Here are results for one substance from patent US20060188913A1, “Methods and products for enhancing immune responses using imidazoquinoline compounds” (University of Iowa Research Foundation, priority 2001, published 2006).

What all share (format): cell-based
For one assay, the target named is T1, hTLR8 (Homo sapiens, UniProt Q9NR97).
T1 construct: plasmids (pcDNA3.1 constructs) coding for full length hTLR2, hTLR7, hTLR8 and hTLR9; expressed in transfected cells; host or cells: 293T cells
T1 sequence (Q9NR97 27-1041): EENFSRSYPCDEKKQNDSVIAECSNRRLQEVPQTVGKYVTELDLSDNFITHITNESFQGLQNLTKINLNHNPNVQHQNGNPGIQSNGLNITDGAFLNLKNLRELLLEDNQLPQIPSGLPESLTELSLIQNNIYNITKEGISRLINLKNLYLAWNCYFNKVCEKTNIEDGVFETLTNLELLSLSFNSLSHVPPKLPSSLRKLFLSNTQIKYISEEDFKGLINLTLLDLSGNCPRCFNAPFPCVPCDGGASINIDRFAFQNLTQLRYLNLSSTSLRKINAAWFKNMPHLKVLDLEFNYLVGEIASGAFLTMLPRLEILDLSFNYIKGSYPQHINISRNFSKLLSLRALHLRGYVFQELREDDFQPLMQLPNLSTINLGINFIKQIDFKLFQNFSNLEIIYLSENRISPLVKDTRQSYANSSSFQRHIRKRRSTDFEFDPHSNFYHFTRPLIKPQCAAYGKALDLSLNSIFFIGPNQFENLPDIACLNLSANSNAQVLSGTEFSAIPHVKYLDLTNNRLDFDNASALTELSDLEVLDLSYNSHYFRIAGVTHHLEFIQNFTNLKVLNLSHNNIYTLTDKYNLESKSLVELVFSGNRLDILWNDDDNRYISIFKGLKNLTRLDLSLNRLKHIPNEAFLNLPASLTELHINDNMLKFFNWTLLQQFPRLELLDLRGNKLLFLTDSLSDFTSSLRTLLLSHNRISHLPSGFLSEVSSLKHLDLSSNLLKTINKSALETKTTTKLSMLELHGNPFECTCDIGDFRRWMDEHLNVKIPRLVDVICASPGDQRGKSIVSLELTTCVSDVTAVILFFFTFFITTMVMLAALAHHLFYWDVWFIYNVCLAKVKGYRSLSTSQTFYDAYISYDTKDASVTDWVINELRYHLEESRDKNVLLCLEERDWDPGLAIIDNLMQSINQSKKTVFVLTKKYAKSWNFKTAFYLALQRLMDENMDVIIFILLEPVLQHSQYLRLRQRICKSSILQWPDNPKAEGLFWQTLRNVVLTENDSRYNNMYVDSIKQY
Kind of assay: IL-8 production in 293 fibroblasts transiently expressing hTLR8. To be noted: CpG-ODN 2 μM, LPS 100 ng/ml. Here is the method:
(§1) The cloned human TLR7 and human TLR8 cDNA were cloned into the expression vector pCDNA3. 1 (−) from Invitrogen using the NotI site. Utilizing a “gain of function” assay, hTLR7 and hTLR8 expression vectors were transiently expressed in human 293 fibroblasts (ATCC, CRL-1573) using the calcium phosphate method. Activation was monitored by IL-8 production after stimulus with CpG-ODN (2006 or 1668, 2 μM) or LPS (100 ng/ml).

For the next assay, the target named is T2, hTLR7 (Homo sapiens, UniProt Q9NYK1).
T2 construct: plasmids (pcDNA3.1 constructs) coding for full length hTLR2, hTLR7, hTLR8 and hTLR9; expressed in transfected cells; host or cells: 293T cells
T2 sequence (Q9NYK1 27-1049): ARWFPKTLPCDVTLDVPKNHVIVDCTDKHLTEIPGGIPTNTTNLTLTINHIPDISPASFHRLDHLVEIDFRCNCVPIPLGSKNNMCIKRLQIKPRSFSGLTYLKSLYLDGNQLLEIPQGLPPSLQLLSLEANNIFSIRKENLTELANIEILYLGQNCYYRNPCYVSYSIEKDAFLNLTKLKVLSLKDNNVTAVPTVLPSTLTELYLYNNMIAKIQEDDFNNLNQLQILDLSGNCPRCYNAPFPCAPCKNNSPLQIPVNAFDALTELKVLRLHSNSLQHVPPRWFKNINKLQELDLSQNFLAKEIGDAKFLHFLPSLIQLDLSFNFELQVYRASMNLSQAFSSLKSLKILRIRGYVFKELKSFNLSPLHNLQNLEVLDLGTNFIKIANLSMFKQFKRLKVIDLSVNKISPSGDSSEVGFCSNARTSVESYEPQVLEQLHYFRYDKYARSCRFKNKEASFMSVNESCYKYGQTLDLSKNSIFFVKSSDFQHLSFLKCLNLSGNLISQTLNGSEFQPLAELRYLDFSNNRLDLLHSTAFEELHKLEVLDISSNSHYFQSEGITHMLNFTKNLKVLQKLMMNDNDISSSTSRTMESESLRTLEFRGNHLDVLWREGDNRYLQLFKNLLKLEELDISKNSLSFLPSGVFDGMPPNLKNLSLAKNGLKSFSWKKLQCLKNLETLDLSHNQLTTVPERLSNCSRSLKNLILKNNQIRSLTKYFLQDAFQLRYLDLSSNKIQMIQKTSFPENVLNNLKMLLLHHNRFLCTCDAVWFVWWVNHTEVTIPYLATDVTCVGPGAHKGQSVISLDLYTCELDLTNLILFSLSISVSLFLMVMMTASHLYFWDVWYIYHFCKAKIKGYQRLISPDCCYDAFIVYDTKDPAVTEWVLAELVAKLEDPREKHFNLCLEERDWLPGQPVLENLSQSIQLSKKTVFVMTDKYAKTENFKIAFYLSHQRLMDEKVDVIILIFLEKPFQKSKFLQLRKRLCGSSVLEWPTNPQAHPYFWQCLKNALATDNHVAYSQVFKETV
Nature of the assay: IL-8 production in 293 fibroblasts transiently expressing hTLR7. To be noted: CpG-ODN 2 μM, LPS 100 ng/ml. Here is the method: as §1

The subject of another assay is human PBMC. Nature of the assay: IP-10 secretion by human PBMC (ELISA). To be noted: 48 hours, ODN 0.2-3.0 μg/ml versus R-848 0.01-1.0 μg/ml, FIG. 6A. The protocol: This experiment investigated the induction of the Th1 cytokine IFN-gamma as well as the Th1-related chemokine IP-10 (IFN-gamma inducible protein). Unfractionated human PBMC from three donors were incubated for 48 hours in the presence of varying concentrations of R-848 (0.01-1.0 μg/ml), varying concentrations of CpG ODN 2006 (0.2-3.0 μg/ml), varying concentrations of negative control ODN 5177 (0.2-3.0 μg/ml), SEB (50 ng/ml), or media alone, and then the concentrations of IP-10 and IFN-gamma in the supernatant were measured by ELISA.
In FIG. 6B, the combined effects of R-848 and CpG ODN (e.g., #2006) on IP-10 secretion are shown. Human PBMCs from three different donors were incubated for 48 hours with the indicated concentrations of ODNs and R-848, either individually or together. Supernatants were harvested and IP-10 was measured by ELISA. The data represent mean cytokine amounts.

As for CpG ODN 2006, the “activation monitored by IL-8 production” value at hTLR8 and at hTLR7 was “None of the stimuli used activated” throughout. Also, the IP-10 induction result with human PBMC is on record as “induced similar amounts of IP-10 compared to R-848”.
